This passage reports TGI and GI50 results from PubChem BioAssay (NCI).

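Compound exposure: 48 hours, 5 concentrations, 96-well plates. GI50 = concentration required for 50% inhibition of growth. The concentration for full growth arrest is given as TGI.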 Where a SMILES comes first, the peptide text is derived from it. The star is where a group is joined. Fmoc = O=C(OCC1c2ccccc2-c2ccccc21)*; Boc = CC(C)(C)OC(=O)*

Some test systems named below: HCC-2998 colon; NCI-H522 lung; UO-31 renal; PC-3 prostate; HL-60(TB) leukemia; IGROV1 ovarian; MALME-3M melanoma; NCI-H460 lung; SNB-75 CNS; SF-295 CNS.
What all share (assay): DTP human tumour cell line panel, 48 h

For the compound `O=C1C=C(OCCCCl)C(=O)c2c(O)ccc(O)c21`, the TGI (usually the concentration at which net growth stops) is 3.37 µM in the test on HCC-2998 colon; 4.26 µM with NCI-H522 lung; 2.41 µM with UO-31 renal; 3.98 µM with PC-3 prostate; 3.03 µM in the test on HL-60(TB) leukemia; 3.44 µM with IGROV1 ovarian. Further, the TGI with MALME-3M melanoma is 0.322 µM; in the test with NCI-H460 lung, 3.1 µM; with SNB-75 CNS it was 2.69 µM; in the test with SF-295 CNS it was 3.2 µM.

In the case of `CCN(CC)CCNc1ccc2nnn3c4ccc(O)cc4c(=O)c1c23`, the TGI with HCC-2998 colon was 15.4 µM; in the test on NCI-H522 lung, 20.9 µM; with UO-31 renal, 4.06 µM; with PC-3 prostate, 16.9 µM; in the test on HL-60(TB) leukemia, 25.1 µM; in the test on IGROV1 ovarian, 20.5 µM. In addition, the TGI is 19.4 µM with MALME-3M melanoma, 4.64 µM in the test on NCI-H460 lung, 14.1 µM in the test on SNB-75 CNS and 17.8 µM in the test with SF-295 CNS.

Consider `CC(=O)C1=C(C)N(c2ccc(C)cc2)C2(O)C3=C(C(=O)c4ccccc4C3=O)C(O)=CC12Cl` (stereo not given), for which the TGI with HCC-2998 colon is 31.6 µM; with NCI-H522 lung, 33.2 µM; in the test on UO-31 renal it was 34.6 µM; in the test on PC-3 prostate, greater than 100 µM; in the test with HL-60(TB) leukemia, greater than 100 µM; with IGROV1 ovarian, 52.6 µM. Besides, the TGI in the test on MALME-3M melanoma is 36.5 µM; in the test with NCI-H460 lung it was greater than 100 µM; in the test on SNB-75 CNS, greater than 100 µM; with SF-295 CNS, 37.3 µM.

As to `c1ccc2c(c1)CCc1[nH]c3c(c1-2)-c1ccccc1CC3`, the TGI with HCC-2998 colon, with NCI-H522 lung, in the test on UO-31 renal, in the test on PC-3 prostate, with HL-60(TB) leukemia and in the test with IGROV1 ovarian was greater than 100 µM throughout. The TGI with MALME-3M melanoma, in the test on NCI-H460 lung, with SNB-75 CNS and in the test on SF-295 CNS was greater than 100 µM in each case.

`CC(C)(C)OC(=O)NCCCCC(NC(=O)C(Cc1c[nH]c2ccccc12)NC(=O)OCC1c2ccccc2-c2ccccc21)C(=O)N1CCCC1C(=O)NCC(N)=O` (stereo not given) (Fmoc-WK(Boc)PG-NH2; configuration not given here): the TGI in the test on HCC-2998 colon, in the test on NCI-H522 lung, with UO-31 renal, in the test with PC-3 prostate, in the test on HL-60(TB) leukemia and with IGROV1 ovarian was greater than 100 µM each time. The TGI with MALME-3M melanoma, with NCI-H460 lung, with SNB-75 CNS and in the test on SF-295 CNS was greater than 100 µM in each case.

`OCCOc1ccccc2cccc1-2`: the TGI in the test on HCC-2998 colon, with NCI-H522 lung, in the test with UO-31 renal, in the test on PC-3 prostate, in the test with HL-60(TB) leukemia and in the test on IGROV1 ovarian was greater than 100 µM each time. The TGI in the test on MALME-3M melanoma, in the test on NCI-H460 lung, with SNB-75 CNS and in the test with SF-295 CNS was greater than 100 µM in each case.

With `C[C@@H](NC(=O)c1ccc(CNC(=O)/C=C/c2cccc(Oc3ccccc3)c2)cc1)c1ccccc1`, the concentration for total growth inhibition (TGI) in the test on HCC-2998 colon was greater than 100 µM; in the test with NCI-H522 lung, greater than 100 µM; in the test on UO-31 renal, 27.5 µM; with PC-3 prostate, greater than 100 µM; in the test with HL-60(TB) leukemia, greater than 100 µM; in the test with IGROV1 ovarian, greater than 100 µM. The TGI in the test with MALME-3M melanoma was greater than 100 µM; in the test on NCI-H460 lung it was greater than 100 µM; in the test on SNB-75 CNS it was 20.1 µM; in the test with SF-295 CNS, greater than 100 µM.

`CC(C)Cc1cc2c(cc1O)CCC1C2CC[C@@]2(C)C1CC[C@@H]2O` (stereo not given in full): the TGI amounted to 36.1 µM in the test with HCC-2998 colon; 26 µM in the test with NCI-H522 lung; 13.4 µM with UO-31 renal; 21 µM with PC-3 prostate; 8 µM with HL-60(TB) leukemia; 33.1 µM in the test on IGROV1 ovarian. Moreover, the TGI is 37 µM in the test on MALME-3M melanoma, 25.5 µM with NCI-H460 lung, 33.3 µM in the test on SNB-75 CNS and 20.2 µM in the test with SF-295 CNS.

Regarding `CN1CCN(Cc2ccc(NC(=O)c3cccc(C#Cc4cnc(N)c5ncccc45)c3F)cc2C(F)(F)F)CC1`, the GI50 (commonly the concentration at which growth is held to half of that of the control) is 0.834 µM in the test on HCC-2998 colon; 0.587 µM in the test on NCI-H522 lung; 0.849 µM in the test with UO-31 renal; 2.02 µM in the test with PC-3 prostate; 1.68 µM with HL-60(TB) leukemia; 0.476 µM with IGROV1 ovarian. The GI50 is 0.675 µM in the test with MALME-3M melanoma, 0.561 µM with NCI-H460 lung, 1.59 µM in the test on SNB-75 CNS and 7.06 µM with SF-295 CNS. For the same compound, the TGI with HCC-2998 colon was 1.6 µM; in the test on NCI-H522 lung, 1.47 µM; with UO-31 renal it was 1.54 µM; with PC-3 prostate, 9.56 µM; in the test with HL-60(TB) leukemia, 18.7 µM; with IGROV1 ovarian it was 1.31 µM. Further, the TGI in the test on MALME-3M melanoma is 1.4 µM; in the test with NCI-H460 lung it was 1.37 µM; in the test with SNB-75 CNS, 7.48 µM; in the test with SF-295 CNS it was 14.7 µM.

Regarding `CCOC(=O)C(C(=S)SC)c1nn2c(=O)cc(C)nc2s1` (stereo not given), the TGI in the test with HCC-2998 colon was found to be 47.2 µM; in the test on NCI-H522 lung, 42.5 µM; in the test with UO-31 renal, 40 µM; in the test with PC-3 prostate, 37.3 µM; in the test on HL-60(TB) leukemia, 35.3 µM; in the test on IGROV1 ovarian it was 38.1 µM. Also, the TGI in the test with MALME-3M melanoma worked out at 31 µM; with NCI-H460 lung, 35.6 µM; with SNB-75 CNS it was 41.3 µM; in the test with SF-295 CNS, 44.6 µM.
